Patent publication US12441730B2, “PRMT5 inhibitors” (Merck Sharp & Dohme LLC, priority 2019, dated 2025)
Where two headings read alike, the source gives them in different places.

Legend:
[1] = biological target: T1, Full-length (FL)-PRMT5-MEP50 enzyme complex (Homo sapiens, UniProt O14744); assay: PRMT5-MEP50 Enzyme Methylation Assay (Version A); type: biochemical
T1 construct: Full-length (FL)-PRMT5-MEP50 enzyme complex (recombinant proteins from baculovirus-transfected Sf21 cells: FL-PRMT5; MW=73837 kDa and FL-MEP50; MW=38614); made in house; host or cells: baculovirus-transfected Sf21 cells
T1 sequence (O14744 whole entry): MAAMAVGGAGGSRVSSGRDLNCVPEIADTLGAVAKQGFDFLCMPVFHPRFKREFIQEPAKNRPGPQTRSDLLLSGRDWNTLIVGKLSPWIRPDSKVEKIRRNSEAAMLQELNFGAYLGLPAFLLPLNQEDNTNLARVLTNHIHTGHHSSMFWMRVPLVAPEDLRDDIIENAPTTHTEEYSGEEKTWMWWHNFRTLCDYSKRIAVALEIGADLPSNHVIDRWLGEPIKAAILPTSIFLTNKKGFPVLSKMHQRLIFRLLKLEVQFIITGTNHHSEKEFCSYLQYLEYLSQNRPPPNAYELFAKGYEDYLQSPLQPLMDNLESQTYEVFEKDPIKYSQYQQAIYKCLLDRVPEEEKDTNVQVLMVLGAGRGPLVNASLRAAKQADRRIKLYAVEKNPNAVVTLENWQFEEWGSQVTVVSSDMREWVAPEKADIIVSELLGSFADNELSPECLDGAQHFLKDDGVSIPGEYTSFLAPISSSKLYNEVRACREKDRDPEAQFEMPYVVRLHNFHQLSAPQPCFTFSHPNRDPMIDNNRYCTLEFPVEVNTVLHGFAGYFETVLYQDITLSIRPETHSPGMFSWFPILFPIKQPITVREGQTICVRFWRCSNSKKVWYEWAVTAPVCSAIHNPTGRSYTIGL
T1 sequence (Q9BQA1 whole entry partner): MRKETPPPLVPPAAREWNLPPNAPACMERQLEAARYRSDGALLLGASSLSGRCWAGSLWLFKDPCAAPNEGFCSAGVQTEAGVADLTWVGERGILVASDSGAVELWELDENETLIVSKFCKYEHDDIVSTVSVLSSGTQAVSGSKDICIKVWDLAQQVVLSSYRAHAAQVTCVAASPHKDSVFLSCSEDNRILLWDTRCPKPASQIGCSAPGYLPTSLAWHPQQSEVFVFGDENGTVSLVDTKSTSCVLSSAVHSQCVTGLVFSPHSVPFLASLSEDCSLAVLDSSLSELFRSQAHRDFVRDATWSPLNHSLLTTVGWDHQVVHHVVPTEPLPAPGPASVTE
Summary of the method: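 Compound was pre-incubated with enzyme for 60 min, then reacted 150 min at 37° C. at final 1.0 nM PRMT5-MEP50, 15 μM SAM and 75 nM biotinylated H4R3(Me1) peptide, in 50 mM Bicine pH 8.0 with 1% DMSO. SAMDI mass-spectrometric readout of Me1→Me2 conversion. EC50 from 4- or 7-parameter regression.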

[2] = test system: symmetric dimethylation of arginine (SDMA) of PRMT5 substrates in MCF-7 cells; assay: PRMT5 Cell Target Engagement (TE) Assay; type: cell-based; conditions: 3 days treatment, SDMA high content imaging
Summary of the method: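 Readout is single-cell nuclear symmetric-dimethylarginine immunofluorescence (Alexa488), normalized to DMSO-treated cells. Compounds were applied to MCF-7 cells for 3 days at 37 °C, top concentration 10000 nM in 1:3 steps over ten points; curves fitted with 4-parameter robust fit.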

[3] = second value of 7 parameter biphasic fit, read-out: Enzyme Methylation Assay Version A (EC50 2)
[4] = single EC50 = 4 parameter single site sigmoidal fit, EC50 1 = first value of 7 parameter biphasic fit, read-out: Enzyme Methylation Assay Version A (EC50 or EC50 1)

SMILES | EC50 [1, 3] | EC50 [1, 4] | EC50 ([2]; Homo sapiens, MCF7, 72 h) | EC50 [2]
COc1nc2nc(C(=O)N3CC[C@]4(Cc5ccccc5CN4)[C@H](O)C3)cn2cc1C [Example 128, [(3R,3′R)-3′-hydroxy-1,4-dihydro-1′H,2H-spiro[isoquinoline-3,4′-piperidin]-1′-yl](7-methoxy-6-methylimidazo[1,2-a]pyrimidin-2-yl)methanone] | 2690 nM | 5.33 nM | 195 nM | 
O=C(c1cn2cc(Br)c(C(F)(F)F)nc2n1)N1CC[C@]2(Cc3ccccc3CN2)[C@H](O)C1 [Example 121, [6-bromo-7-(trifluoromethyl)imidazo[1,2-a]pyrimidin-2-yl][(3R,3′R)-3′-hydroxy-1,4-dihydro-1′H,2H-spiro[isoquinoline-3,4′-piperidin]-1′-yl]methanone] | 3310 nM | 4.88 nM | 65.5 nM | 
Cc1cc2nnc(C(=O)N3CC[C@]4(Cc5ccccc5CN4)[C@H](O)C3)c(C)n2n1 [Example 184, (4,7-dimethylpyrazolo[5,1-c][1,2,4]triazin-3-yl)((3R,3′R)-3′-hydroxy-1,4-dihydro-2H-spiro[isoquinoline-3,4′-piperidin]-1′-yl)methanone] | 21900 nM | 16.2 nM | 995 nM | 
O=C(c1cn2c(n1)C(C1CCOC1)CC(C(F)(F)F)C2)N1CC[C@]2(Cc3ccccc3CN2)[C@H](O)C1 (single isomer, unassigned) [Example 163, ((3R,3′R)-3′-hydroxy-1,4-dihydro-2H-spiro[isoquinoline-3,4′-piperidin]-1′-yl)((6S,8S or 6R,8R)-8-((S or R)-tetrahydrofuran-3-yl)-6-(trifluoromethyl)-5,6,7,8-tetrahydroimidazo[1,2-a]pyridin-2-yl)methanone] | 36700 nM | 96.6 nM |  | 1590 nM
O=C(c1cc2oc3ccccc3c2cc1O)N1CC[C@]2(Cc3ccccc3CN2)[C@H](O)C1 [Example 182, ((3R,3′R)-3′-hydroxy-1,4-dihydro-2H-spiro[isoquinoline-3,4′-piperidin]-1′-yl)(2-hydroxydibenzo[b,d]furan-3-yl)methanone] | 1350 nM | 4.57 nM | 155 nM | 
Cc1ccc(C(=O)N2CC[C@]3(Cc4ccccc4CN3)[C@H](O)C2)c(Cl)n1 [Example 204, (2-chloro-6-methyl-3-pyridinyl)[(3R,3′R)-3′-hydroxy-1,4-dihydro-1′H,2H-spiro[isoquinoline-3,4′-piperidin]-1′-yl]methanone] | 14600 nM | 21.9 nM | 1590 nM | 
COCCN1CC(C2CC2)Cn2cc(C(=O)N3CC[C@]4(Cc5ccccc5CN4)[C@H](O)C3)nc21 (single isomer, unassigned) [Example 143] |  | 184 nM | 318 nM | 
COC(C)c1cc(C)c2nc(C(=O)N3CC[C@]4(Cc5ccccc5CN4)[C@H](O)C3)cn2c1 (single isomer, unassigned) [Example 122] | 144 nM | 0.304 nM |  | 5.56 nM
O=C(c1cc2n(n1)CCS(=O)(=O)C2)N1CC[C@]2(Cc3ccccc3CN2)[C@H](O)C1 [Example 177, (5,5-dioxido-6,7-dihydro-4H-pyrazolo[5,1-c][1,4]thiazin-2-yl)((3R,3′R)-3′-hydroxy-1,4-dihydro-2H-spiro[isoqiuinoline-3,4′-piperidin]-1′-yl)methanone] |  | 1910 nM | ≥ 10000 nM | 
O=C(c1cn2cc(Br)nc(OC3COC3)c2n1)N1CC[C@]2(Cc3ccccc3CN2)[C@H](O)C1 [Example 12, (6-bromo-8-(oxetan-3-yloxy)imidazo[1,2-a]pyrazin-2-yl)((3R,3’R)-3′-hydroxy-1,4-dihydro-2H-spiro[isoquinoline-3,4′-piperidin]-1′-yl)methanone] | 159 nM | 0.231 nM | 9.48 nM | 
Cc1c(C(=O)N2CC[C@]3(Cc4ccccc4CN3)[C@H](O)C2)nn2cc(Br)cnc12 [Example 62, (6-bromo-3-methylpyrazolo[1,5-a]pyrimidin-2-yl)[(3R,3′R)-3′-hydroxy-1,4-dihydro-1′H,2H-spiro[isoquinoline-3,4′-piperidin]-1′-yl]methanone] | 556 nM | 0.395 nM | 31 nM | 
COC(C)c1cc(C)c2nc(C(=O)N3CC[C@]4(Cc5ccccc5CN4)[C@H](O)C3)cn2c1 (single isomer, unassigned) [Example 123] | 182 nM | 0.378 nM |  | 11.8 nM
O=C(c1cn2c(n1)C(C1CCOC1)CC(C(F)(F)F)C2)N1CC[C@]2(Cc3ccccc3CN2)[C@H](O)C1 (single isomer, unassigned) [Example 162, ((3R,3′R)-3′-hydroxy-1,4-dihydro-2H-spiro[isoquinoline-3,4′-piperidin]-1′-yl)((6S,8S or 6R,8R)-8-((S or R)-tetrahydrofuran-3-yl)-6-(trifluoromethyl)-5,6,7,8-tetrahydroimidazo[1,2-a]pyridin-2-yl)methanone] | 93300 nM | 260 nM |  | 7520 nM
CC(C)N1CCNc2cc(C(=O)N3CC[C@]4(Cc5ccccc5CN4)[C@H](O)C3)ccc2C1=O [Example 27, 8-((3R,3’R)-3′-hydroxy-1,4-dihydro-1′H,2H-spiro[isoquinoline-3,4′-piperidine]-1′-carbonyl)-4-(propan-2-yl)-1,2,3,4-tetrahydro-5H-1,4-benzodiazepin-5-one] | 3350 nM | 3.65 nM | 36.8 nM | 
O=C(c1ccc2nccn2n1)N1CC[C@]2(Cc3ccccc3CN2)[C@H](O)C1 [Example 188, ((3R,3′R)-3′-hydroxy-1,4-dihydro-2H-spiro[isoquinoline-3,4′-piperidin]-1′-yl)(imidazo[1,2-b]pyridazin-6-yl)methanone] | 74100 nM | 144 nM | 3320 nM | 
O=C(c1ccnc2ncnn12)N1CC[C@]2(Cc3ccccc3CN2)[C@H](O)C1 [Example 189, [1,2,4]triazolo[1,5-a]pyrimidin-7-yl((3R,3′R)-3′-hydroxy-1,4-dihydro-2H-spiro[isoquinoline-3,4′-piperidin]-1′-yl)methanone] | 66100 nM | 30.2 nM | 3500 nM | 
Cn1nccc1-c1cnc2nc(C(=O)N3CC[C@]4(Cc5ccccc5CN4)[C@H](O)C3)cn2c1 [Example 78, [(3R,3′R)-3′-hydroxy-1,4-dihydro-1′H,2H-spiro[isoquinoline-3,4′-piperidin]-1′-yl][6-(1-methyl-1H-pyrazol-5-yl)imidazo[1,2-a]pyrimidin-2-yl]methanone] | 76.7 nM | 0.508 nM | 45.3 nM | 
COc1ccc(C)cc1-n1cnc(C(=O)N2CC[C@]3(Cc4ccccc4CN3)[C@H](O)C2)c1 [Example 213, [(3R,3′R)-3′-hydroxy-1,4-dihydro-1′H,2H-spiro[isoquinoline-3,4′-piperidin]-1′-yl][1-(2-methoxy-5-methylphenyl)-1H-imidazol-4-yl]methanone] | 343 nM | 4.33 nM | 209 nM | 
O=C(c1cn2cc(Br)ccc2n1)N1CCC2(Cc3ccccc3CN2)C(O)C1 (stereo not drawn) [Example 16, A diastereomer of (6-bromoimidazo[1,2-a]pyridin-2-yl)(3′-hydroxy-1,4-dihydro-1′H,2H-spiro[isoquinoline-3,4′-piperidin]-1′-yl)methanone] | 1590 nM | 2.02 nM | 50.9 nM | 
O=C(c1cn2cc(F)cc(Br)c2n1)N1CC[C@]2(Cc3ccccc3CN2)[C@H](O)C1 [Example 208, (8-bromo-6-fluoroimidazo[1,2-a]pyridin-2-yl)[(3R,3′R)-3′-hydroxy-1,4-dihydro-1′H,2H-spiro[isoquinoline-3,4′-piperidin]-1′-yl]methanone] | 692 nM | 0.763 nM | 100 nM | 
COC(C)c1ccc2nc(C(=O)N3CC[C@]4(Cc5ccccc5CN4)[C@H](O)C3)cn2c1 (single isomer, unassigned) [Example 22, ((3R,3’R)-3′-hydroxy-1,4-dihydro-2H-spiro[isoquinoline-3,4′-piperidin]-1′-yl)(6-((S or R)-1-methoxyethyl)imidazo[1,2-a]pyridin-2-yl)methanone] | 439 nM | 0.674 nM |  | 16.8 nM
CO[C@H](C)c1cc(-c2ccnn2C)cn2cc(C(=O)N3CC[C@]4(Cc5ccccc5CN4)[C@H](O)C3)nc12 [Example 242, [(3R,3′R)-3′-hydroxy-1,4-dihydro-1′H,2H-spiro[isoquinoline-3,4′-piperidin]-1′-yl]{8-[(1R)-1-methoxyethyl]-6-(1-methyl-1H-pyrazol-5-yl)imidazo[1,2-a]pyridin-2-yl}methanone] |  | 0.7 nM | 1.81 nM | 
COC[C@H]1C[C@@H](C(F)(F)F)Cn2cc(C(=O)N3CC[C@]4(Cc5ccccc5CN4)[C@H](O)C3)nc21 (single isomer, unassigned) [Example 155] | 3980 nM | 5.26 nM | 122 nM | 
COC(C)c1cc(C(C)C)cn2cc(C(=O)N3CC[C@]4(Cc5ccccc5CN4)[C@H](O)C3)nc12 (stereo partly drawn) [Example 84, A diastereomer of [(3R,3′R)-3′-hydroxy-1,4-dihydro-1′H,2H-spiro[isoquinoline-3,4′-piperidin]-1′-yl][6-isopropyl-8-(1-methoxyethyl)imidazo[1,2-a]pyridin-2-yl]methanone] | 292 nM | 0.464 nM | 10.9 nM | 
